# According to patent US11344574B2, “Fluoro substituted porphyrin compounds, pharmaceutical compositions comprising the same, and methods of preparing and using the same” (Duke University, priority 2017, dated 2022):
# “Also recorded” adds a separate entry of the source.
# Assays:
# [1] = Lipophilicity by TLC retention factor Rf on silica; assay type: physicochemical; details: vs two non-fluorinated lipophilic analogs
# From the text: Fluorination enhances the lipophilicity of MnPs as described with TLC retention factor, Rf (compound path/solvent path). Rf was obtained on silica gel plates using acetonitrile:KNO3(sat):water=8:1:1 as previously described (Tovmasyan A, Carballal S, Ghazaryan R, Melikyan L, Weitner T, Maia C G, Reboucas J S, Radi R, Spasojevic I, Benov L, and Batinic-Haberle I. Rational Design of Superoxide Dismutase (SOD) Mimics: The Evaluation of the Therapeutic Potential of New Cationic Mn Porphyrins with Linear and Cyclic Substituents. Inorg Chem 53: 11467-83, 2014).
# In some embodiments, the fluoro-substituted porphyrins of the present invention may have enhanced lipophilicity (e.g., compared to non-fluoro-substituted porphyrins). Lipophilicity can be measured via thin layer chromatography. The relative lipophilicity of a group of compounds can be determined in a given solvent system. […] The fluoro-substituted porphyrins of the present invention suitably have a lipophilicity of greater than zero in a solvent system of acetonitrile:water:KNO3 (saturated aqueous) (8:1:1). Alternatively, the lipophilicity may be quantified by the standard octanol/water partition coefficient (log P). In some embodiments, the lipophilic fluoro-substituted porphyrins may have a greater bioavailability than their hydrophilic analogs. […]
# [2] = Maximal tolerable dose (MTD) studies; assay type: in vivo, rats; details: subcutaneous
# Experimental: The dose we identified as entirely safe was then given for 2 weeks. […] A dose above 0.5 mg/kg of MnTF3Pen-2-PyP^5+ seems to impose some toxicity expressed as hypotonia and reluctance to ambulate. We have thus decided to continue with 0.5 mg/kg which appears as safe non-toxic MTD dose for multiple dosing.
# [3] = Metal-centered reduction potential for the Mn^IIIP/Mn^IIP redox couple; assay type: physicochemical; details: vs normal hydrogen electrode
# [4] = SOD mimicking: catalysis of O2.^− dismutation; assay type: biochemical; details: ability to mimic SOD enzyme in catalysis of O2.^− dismutation
# [5] = Brain accumulation of MnPs with different administration routes; assay type: in vivo; details: route-dependent
# From the text: MnF3Pen accumulates in the brain at levels which are (route-dependently) up to 50% lower than those of MnBuOE due to its more polar fluorine atoms.
# 4T1 breast tumor = assay: Mouse flank 4T1 tumor radio- and chemosensitization study, MnP 0.2 mg/kg; assay type: in vivo; details: triple combination MnP 0.2 mg/kg sc + ascorbate + radiation, listed as MnTF3Pen-2-PyP^5+
# Experimental: Female Balb/c mice were injected subcutaneously (on flank) with 1 million cells. […] 24 hours after the first injection of Mn porphyrins the radiation started at 2.5 Gy per day for 3 days. Fractionated radiation regime was used to better reflect the clinical scenario. […] Injection of drugs was continued daily. Once the study was completed when mice reached on average 2000 mm^3 volume, the mice were sacrificed, and tumors, normal muscle from opposite leg and liver were collected and levels of Mn porphyrins analyzed by LCMS/MS.
# prostate tissue = assay: Radioprotection of prostate tissue, histopathology (H&E); details: for radioprotection of prostate tissue: rats, 0.5 mg/kg sc, single 20 Gy RT, 0.5 mg/kg
# Experimental: Tissue was stained with H&E.
# Mn4 administration started at 24 hours before RT. Mn4 was given at 0.5 mg/kg sc for the first 4 weeks daily except for weekends, and then twice weekly for the next 5 weeks. Single 20 Gy RT dose was given.
# The tissues were preserved, half of them in formalin and another half snap-frozen for different analyses. Prostate is the only tissue directly radiated and the penile function was known to suffer radiation damage.
# [6] = Toxicity in a rat and mouse study; assay type: in vivo
# From the text: Also, such differences could not have been anticipated based just on the aqueous chemistry and diverse physical properties of those compounds. Such effects likely result from the differences in the polarities of those molecules: strongly polar character of 12 fluorine atoms relative to 4 polar oxygen atoms. […] Despite being equally lipophilic, a higher efficacy of MnTF3Pen-2-PyP^5+ than MnTnBuOE-2-PyP^5+ was observed.
# [7] = Pharmacokinetic studies in plasma and organs, 1 mg/kg; assay type: in vivo, rats; details: for Cmax: male, rat
# Experimental: Whenever possible, the PK profiles of MnF3Pen were compared to MnTnBuOE-2-PyP^5+ (MnBuOE, Mn2), the drug presently in two clinical trials.
# 3 rats were used per time point. The following time points were tested: 30 min, 1, 2, 6, 24 hours, and 3 and 7 days. The tissues were taken after the rats were perfused with PBS to eliminate blood content of organs and, therefore its interference with blood content of organs. At 6 h, three additional rats were used to assess the effect of perfusion. In addition to plasma, the following organs were analyzed: liver, kidney, prostate, penis, testis, rectum, bladder, and brain. We have collected liver due to Mn porphyrins accumulating at the highest level in this organ; it then serves as a depot to maintain levels of drug in plasma and other organs. We also took the brain because toxicity of Mn porphyrins has been seen at that level present in the brain. Whenever possible the comparison with MnBuOE has been done. […] MnBuOE was used as internal standard.
# [8] = test system: radiation-induced erectile dysfunction; assay: Radioprotection of erectile function after 20 Gy radiation; assay type: in vivo; details: rats, 0.5 mg/kg sc, single 20 Gy RT, with and without ascorbate, 9 weeks
# Experimental: Mn4 administration started at 24 hours before RT. Mn4 was given at 0.5 mg/kg sc for the first four weeks daily (except for weekends) and then twice weekly for next five weeks. Single 20 Gy RT dose was given stereotactically.
# 10 rats per group were studied. MnF3Pen was given at 0.5 mg/kg sc for the first four weeks daily except for weekends, and then twice weekly for the next five weeks.
# Single radiation dose of 20 Gy was delivered stereotactically, using image guided small animal radiator.
# It was used at 0.1 mg/kg (at week 6 and 9).
# Based on earlier studies, erectile dysfunction has been assessed at 9 weeks. […] Mn4 administration started at 24 hours before RT. Mn4 was given at 0.5 mg/kg sc for the first 4 weeks daily except for weekends, and then twice weekly for the next 5 weeks. Single 20 Gy RT dose was given.
# wild strain E. coli = assay: Toxicity by aerobic growth of wild strain E. coli; assay type: cell-based; details: vs MnTnHex-2-PyP^5+ and MnTnBuOE-2-PyP^5+
# Experimental: Herein we explored the member of a new class of Mn porphyrin-based therapeutics, MnTF3Pen-2-PyP^5+ (MnTF3Pen, Mn4) (FIG. 1). We have maintained major structural properties that support the redox-activity of MnPs, yet modified peripheral substituents by introducing polar fluorine atoms. […] The properties of Mn porphyrins (given in arbitrary units) which cumulatively define their therapeutic index: SOD-like activities, lipophilicities and toxicities. […] Toxicities are evaluated based on the aerobic growth of wild strain E. coli—a simple but accurate assay used for over 2 decades to identify the compounds with clinical potential.
# [9] = Ability of MnP to catalyze ascorbate oxidation, initial rates assessed spectrally; details: initial rate of ascorbate oxidation; 10 μM MnP, 1 mM Asc, aerobic, 25 °C, pH 7.8
structure (smiles),measurement,setting,value
"FC(F)(F)CCCC[n+]1ccccc1C1=C2C=CC3=[N+]2[Mn]24[n]5c1ccc5C(c1cccc[n+]1CCCCC(F)(F)F)=C1C=CC(=[N+]12)C(c1cccc[n+]1CCCCC(F)(F)F)=c1ccc([n]14)=C3c1cccc[n+]1CCCCC(F)(F)F [Mn4, 5,10,15,20-tetra(Mn(III) 5′,5′,5′-trifluoropentylpyridinium-2-yl)porphinato pentachloride]",lipophilicity (in words),[1],more lipophilic
same,MTD at 2 weeks,"[2]; rat, in vivo, sc, safe non-toxic dose for multiple dosing",0.5 mg/kg
same,"dose imposing some toxicity (hypotonia, reluctance to ambulate)",[2],above 0.5 mg/kg
same,"E1/2, mV vs NHE",[3],+288 mV
same,log kcat (O2−^•),[4],7.48
same,brain levels lower than those of MnBuOE,[5],up to 50%
same,tumor growth inhibition,4T1 breast tumor,larger tumor growth inhibition; also recorded: Strong tumor suppression
same,"morphological findings, prostate glands",prostate tissue; RT+Mn4+Asc group (heading printed twice),"Local glands presented few large bizarre nuclei, some cells showed enlarged irregular nucleus and obvious nucleolus"
same,radioprotection of prostate tissue,prostate tissue,significant radioprotection of prostate tissue
same,radioprotection of prostate tissue,prostate tissue; listed as MnTF3Pen-2-PyP^5+,suppresses radiation (RT) damage to prostate tissue
same,bladder and rectum pathology,prostate tissue; with respect to control non-radiated tissues,no changes on bladder and rectum pathology
same,toxicity compared with MnTnBuOE-2-PyP^5+,[6],less toxicity
same,levels in the tissues of interest,[7]; 1 mg/kg,higher than 100 nM
same,tolerability,[7]; 1 mg/kg,well tolerated
same,accumulation in liver,"[7]; 1 mg/kg, vs MnBuOE",lower accumulation in liver
same,plasma half-life,"[7]; 1 mg/kg, vs MnBuOE",longer plasma half-life
same,levels in all tissues of interest,[7]; FIG. 11,above 0.1 μM
same,"highest levels, liver","[7]; liver, FIG. 11",about 1 μM
same,Cmax,"[7]; bladder, 1 mg/kg",450 nM
same,Cmax,"[7]; penis, 1 mg/kg",250 nM
same,Cmax,"[7]; prostate, 1 mg/kg",150 nM
same,Cmax,"[7]; rectum, 1 mg/kg",105 nM
same,Cmax,"[7]; testes, 1 mg/kg",190 nM
same,prevention of radiation-induced erectile dysfunction,[8],fully prevented radiation-induced erectile dysfunction
same,toxicity,wild strain E. coli,less toxic
same,v0(Asc oxid),[9],297 nM/s
